From ChEMBL document CHEMBL5385871, “Application and synthesis of thiazole ring in clinically approved drugs” (Eur J Med Chem, 2023) come the findings set out here.

Values after ≈ are worked out from the molar mass of the structure shown. Where a name gives a salt, the structure may show the parent alone.

The subject of one series is Escherichia coli. Nature of the series: Antibacterial activity against Escherichia coli assessed as bacterial growth inhibition. It counts as functional.
The next series deals with Streptococcus pneumoniae. As to the kind of experiment: Antibacterial activity against Streptococcus pneumoniae assessed as bacterial growth inhibition. It counts as functional.
The next series concerns Pseudomonas aeruginosa. As to the kind of experiment: Antibacterial activity against Pseudomonas aeruginosa assessed as bacterial growth inhibition. It counts as functional.
Series [1] can be described thus: Terminal half life in fasted Sprague-Dawley rat at 3 mg/kg, po measured for 24 hrs by LC-MS/MS analysis. As to conditions: in vivo, read-out: beta t1/2 (converted). It counts as ADME, organism-based.
A short description of series [2]: Terminal half life in fasted cynomolgus monkey at 3 mg/kg, po measured for 24 hrs by LC-MS/MS analysis. It counts as ADME, organism-based, Macaca fascicularis. Conditions: in vivo, read-out: beta t1/2 (converted).
In the next series the target is Acetylcholinesterase (Homo sapiens, UniProt P22303).
For the next series, the system named is Haemophilus influenzae. As to the kind of experiment: Antibacterial activity against Haemophilus influenzae assessed as bacterial growth inhibition. It counts as functional.
In another series the test system is Streptococcus pyogenes. As to the kind of experiment: Antibacterial activity against Streptococcus pyogenes assessed as bacterial growth inhibition. It counts as functional.
Series [3] can be described thus: Inhibition of PI3Kalpha H1047R mutant (unknown origin). On the set-up: species or system Homo sapiens.
For series [4], the target named is T1, Beta-1 adrenergic receptor (Homo sapiens, UniProt P08588). Nature of the series: Inhibition of beta-1 adrenoceptor (unknown origin).
In series [5] the target is T2, Beta-2 adrenergic receptor (Homo sapiens, UniProt P07550). As to the kind of experiment: Inhibition of beta-2 adrenoceptor (unknown origin).
A short description of series [6]: Induction of colony formation of human megakaryocyte from human cord blood CD34-positive cells measured after 10 to 12 days. It counts as functional, cell-based.
The test system of another series is BaF3. Nature of the series: Induction of cell proliferation of mouse BaF3 cells expressing full-length human TPO receptor by WST-1/1-methoxy PMS assay. In kind it is functional, cell-based.
Another series has as its system Staphylococcus aureus. As to the kind of experiment: Antibacterial activity against Staphylococcus aureus assessed as bacterial growth inhibition. In kind it is functional.
The subject of series [7] is Staphylococcus epidermidis. Nature of the series: Antibacterial activity against Staphylococcus epidermidis assessed as bacterial growth inhibition. It counts as functional.
The nature of series [8]: Antibacterial activity against non-fermentative bacteria assessed as bacterial growth inhibition.
The next series concerns Enterobacteriaceae. Nature of the series: Antibacterial activity against Enterobacteriaceae assessed as bacterial growth inhibition. In kind it is functional.
Another series has as its system Bacteria. As to the kind of experiment: Antibacterial activity against aerobic gram-negative bacteria assessed as bacterial growth inhibition. In kind it is functional.
In another series the test system is Proteus mirabilis. Nature of the series: Antibacterial activity against Proteus mirabilis assessed as bacterial growth inhibition. In kind it is functional.
For another series, the system named is Bacteroides fragilis. Nature of the series: Antibacterial activity against Bacteroides fragilis assessed as bacterial growth inhibition. In kind it is functional.
Another series relates to Clostridioides difficile. Nature of the series: Antibacterial activity against Clostridium difficile assessed as bacterial growth inhibition. In kind it is functional.
Another series relates to Neisseria gonorrhoeae. As to the kind of experiment: Antibacterial activity against Neisseria gonorrhoeae assessed as bacterial growth inhibition. In kind it is functional.
A further series has as its system Moraxella catarrhalis. As to the kind of experiment: Antibacterial activity against Moraxella catarrhalis assessed as bacterial growth inhibition. In kind it is functional.
Another series concerns WiDr. As to the kind of experiment: cells. Conditions: Homo sapiens, 72 h.
The next series concerns K562. Nature of the series: cells. As to conditions: Homo sapiens, K562, 72 h.
A short description of series [9]: Oral bioavailability in fasted Sprague-Dawley rat at 10 mg/kg administered via gavage measured for 10 hrs by LC/MS/MS analysis. It counts as ADME, organism-based. As to conditions: in vivo.
A short description of series [10]: in vivo. As to conditions: Sprague-Dawley, rat, iv, 10 mg/kg.
Description: Half life in fasted Sprague-Dawley rat at 10 mg/kg, iv measured for 10 hrs by LC/MS/MS analysis
Series [11] can be described thus: in vivo. Conditions: Sprague-Dawley, rat, po, 10 mg/kg.
Description: Half life in fasted Sprague-Dawley rat at 10 mg/kg, po administered via gavage measured for 10 hrs by LC/MS/MS analysis
Another series deals with Urinary bladder. Nature of the series: Ex vivo relaxant activity against CCh-induced contraction in rat urinary bladder smooth muscle strips relative to control. In kind it is functional.
In series [12] the target is T1, Beta-1 adrenergic receptor. As to the kind of experiment: Agonist activity at human beta-1 adrenoceptor expressed in CHO cells assessed as cAMP accumulation incubated for 10 mins by radioimmunoassay. It counts as functional, cell-based. On the technique in general: Changes in cAMP serve as a functional read-out for many G protein-coupled receptors.
The target of series [13] is Beta-3 adrenergic receptor (Homo sapiens, UniProt P13945). Nature of the series: Agonist activity at human beta-3 adrenoceptor expressed in CHO cells assessed as cAMP accumulation incubated for 10 mins by radioimmunoassay. It counts as functional, cell-based.
Series [14] concerns the target T2, Beta-2 adrenergic receptor. As to the kind of experiment: Agonist activity at human beta-2 adrenoceptor expressed in CHO cells assessed as cAMP accumulation incubated for 10 mins by radioimmunoassay. It counts as functional, cell-based.
Series [15] is described as follows: Inhibition of proliferation in Giardia lamblia trophozoites. In kind it is functional, Giardia duodenalis.
A further series deals with D(3) dopamine receptor (Homo sapiens, UniProt P35462).
Series [16] is described as follows: Inhibition of P-gp-mediated extrusion of [14C]saquinavir in porcine BCEC cells measured after 5 mins by scintillation counting method. As to conditions: brain capillary endothelial cell. It counts as cell-based, Sus scrofa.

T1 sequence (P08588 whole entry): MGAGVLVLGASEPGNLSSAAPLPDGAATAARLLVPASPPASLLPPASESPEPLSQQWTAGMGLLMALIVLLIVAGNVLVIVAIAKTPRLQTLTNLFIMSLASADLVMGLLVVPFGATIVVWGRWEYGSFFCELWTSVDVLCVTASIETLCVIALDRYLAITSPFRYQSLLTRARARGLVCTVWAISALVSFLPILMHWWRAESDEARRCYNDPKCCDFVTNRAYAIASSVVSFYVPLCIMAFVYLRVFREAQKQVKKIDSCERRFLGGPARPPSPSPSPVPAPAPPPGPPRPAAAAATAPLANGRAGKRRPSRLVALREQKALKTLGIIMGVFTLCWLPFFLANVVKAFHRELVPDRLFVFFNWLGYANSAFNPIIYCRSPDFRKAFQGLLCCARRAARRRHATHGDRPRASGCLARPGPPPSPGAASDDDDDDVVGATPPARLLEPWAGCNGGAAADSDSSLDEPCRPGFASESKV
T2 sequence (P07550 whole entry): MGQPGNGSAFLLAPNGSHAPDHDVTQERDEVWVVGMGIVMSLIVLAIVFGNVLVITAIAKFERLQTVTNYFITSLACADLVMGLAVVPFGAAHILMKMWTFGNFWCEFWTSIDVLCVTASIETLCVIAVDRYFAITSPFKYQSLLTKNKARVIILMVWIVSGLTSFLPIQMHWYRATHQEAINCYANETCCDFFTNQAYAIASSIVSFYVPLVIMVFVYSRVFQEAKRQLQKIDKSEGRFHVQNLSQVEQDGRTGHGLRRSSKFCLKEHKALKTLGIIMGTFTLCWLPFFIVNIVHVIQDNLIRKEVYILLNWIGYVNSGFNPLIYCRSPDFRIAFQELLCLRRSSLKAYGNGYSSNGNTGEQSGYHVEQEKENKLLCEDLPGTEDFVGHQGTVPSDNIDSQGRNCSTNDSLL
Chain of Beta-3 adrenergic receptor (P13945 whole entry): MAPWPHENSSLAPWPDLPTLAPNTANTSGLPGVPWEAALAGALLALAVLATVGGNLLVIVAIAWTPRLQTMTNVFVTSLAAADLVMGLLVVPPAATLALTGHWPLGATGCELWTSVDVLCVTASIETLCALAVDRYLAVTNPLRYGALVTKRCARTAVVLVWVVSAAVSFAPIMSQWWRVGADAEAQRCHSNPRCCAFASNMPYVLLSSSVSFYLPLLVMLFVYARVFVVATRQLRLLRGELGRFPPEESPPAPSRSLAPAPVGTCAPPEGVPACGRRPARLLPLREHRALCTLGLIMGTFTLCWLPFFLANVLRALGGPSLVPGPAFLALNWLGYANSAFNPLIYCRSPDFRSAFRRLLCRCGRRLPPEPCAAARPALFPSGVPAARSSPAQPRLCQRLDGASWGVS
Chain of D(3) dopamine receptor (P35462 whole entry): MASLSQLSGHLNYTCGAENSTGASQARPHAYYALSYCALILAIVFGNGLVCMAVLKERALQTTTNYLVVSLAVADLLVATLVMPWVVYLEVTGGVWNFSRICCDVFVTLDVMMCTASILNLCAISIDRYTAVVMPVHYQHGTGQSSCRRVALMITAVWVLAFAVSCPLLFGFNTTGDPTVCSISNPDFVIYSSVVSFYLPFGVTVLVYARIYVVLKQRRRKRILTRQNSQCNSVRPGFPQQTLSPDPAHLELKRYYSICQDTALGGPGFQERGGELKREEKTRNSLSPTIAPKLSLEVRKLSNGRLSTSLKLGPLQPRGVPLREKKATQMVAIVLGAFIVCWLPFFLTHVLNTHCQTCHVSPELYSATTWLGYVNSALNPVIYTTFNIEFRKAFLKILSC
Chain of Acetylcholinesterase (P22303 whole entry): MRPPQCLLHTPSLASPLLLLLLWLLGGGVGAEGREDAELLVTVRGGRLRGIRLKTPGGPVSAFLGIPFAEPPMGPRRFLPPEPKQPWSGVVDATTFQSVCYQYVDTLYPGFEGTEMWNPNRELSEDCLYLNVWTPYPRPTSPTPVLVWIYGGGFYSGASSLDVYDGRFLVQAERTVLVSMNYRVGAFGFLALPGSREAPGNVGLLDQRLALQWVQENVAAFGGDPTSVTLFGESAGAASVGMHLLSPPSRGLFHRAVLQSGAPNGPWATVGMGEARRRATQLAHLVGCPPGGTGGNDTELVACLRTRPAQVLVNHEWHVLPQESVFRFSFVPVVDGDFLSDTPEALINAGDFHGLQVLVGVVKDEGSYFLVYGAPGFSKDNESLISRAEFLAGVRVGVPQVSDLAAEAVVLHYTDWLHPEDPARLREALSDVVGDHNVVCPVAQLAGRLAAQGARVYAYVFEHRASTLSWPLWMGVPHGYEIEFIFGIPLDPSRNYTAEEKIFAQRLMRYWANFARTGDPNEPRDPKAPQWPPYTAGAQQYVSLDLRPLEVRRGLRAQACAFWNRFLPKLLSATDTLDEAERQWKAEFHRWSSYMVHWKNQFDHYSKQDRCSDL
Description for Acetylcholinesterase: Inhibition of AChE (unknown origin)
Description for D(3) dopamine receptor: Binding affinity to human D3 receptor assessed as inhibition constant
Description for K562: Antiproliferative activity against human K562 cells incubated for 72 hrs by MTT assay
Description for WiDr: Antiproliferative activity against human WiDr cells incubated for 72 hrs by MTT assay

On to `CO/N=C(\C(=O)N[C@@H]1C(=O)N2C(C(=O)[O-])=C(C[N+]3(C)CCCC3)CS[C@H]12)c1csc(N)n1`, for which the MIC in the series on Escherichia coli is at most 0.007 µg/mL; in the series with Streptococcus pneumoniae it was 0.007 µg/mL (≈ 0.0146 µM); in the series with Pseudomonas aeruginosa, above 0.06 µg/mL.
Consider `COc1ccc2c(O[C@@H]3C[C@H]4C(=O)N[C@]5(C(=O)NS(=O)(=O)C6CC6)C[C@H]5/C=C\CCCCN(C)C(=O)[C@@H]4C3)cc(-c3nc(C(C)C)cs3)nc2c1C`, for which the figures for the half-life in series [1] and in series [2] were 1.5 h and 4.1 h, respectively.
As a reminder, the IC50 is the midpoint of a concentration-inhibition curve. As for `COc1cc(O)c(C(=O)Nc2nc(C(=O)NCCN(C(C)C)C(C)C)cs2)cc1OC`, the half-inhibitory concentration (IC50) against Acetylcholinesterase was determined as 1790 nM.
For `C=CC1=C(C(=O)O)N2C(=O)[C@@H](NC(=O)/C(=N\O)c3csc(N)n3)[C@H]2SC1`, the results for the MIC with Streptococcus pneumoniae, in the series on Haemophilus influenzae and in the series on Streptococcus pyogenes were 0.006 µg/mL (≈ 0.0152 µM), 0.05 µg/mL (≈ 0.126 µM) and at most 0.004 µg/mL, respectively.
With `Cc1nc(NC(=O)N2CCC[C@H]2C(N)=O)sc1-c1ccnc(C(C)(C)C(F)(F)F)c1` [ALPELISIB], in series [3], the IC50 is around 4 nM.
The term Ki denotes the dissociation constant of the complex between target and ligand, obtained from inhibition or displacement. For the molecule `CC(C)(C)NCC(O)CSc1nc(-c2ccc(C(N)=O)s2)cs1` (centres undefined) [AROTINOLOL], the figures for the Ki in series [4] and in [5] were 0.182 nM and 0.55 nM, respectively.
A word on the EC50: it is the concentration at which the effect is half-maximal. With `O=C(Nc1nc(-c2cc(Cl)cs2)c(N2CCN(C3CCCCC3)CC2)s1)c1cnc(N2CCC(C(=O)O)CC2)c(Cl)c1` [AVATROMBOPAG], the EC50 in series [6] was 25 nM; in the series on BaF3, 3.3 nM.
Turning to `C[C@H]1[C@H](NC(=O)/C(=N\OC(C)(C)C(=O)O)c2csc(N)n2)C(=O)N1S(=O)(=O)O` [AZTREONAM], the MIC with Staphylococcus aureus is at least 8 µg/mL; in series [7] it was 8 µg/mL (≈ 18.4 µM); in the series on Streptococcus pyogenes, at least 8 µg/mL.
In the case of `CC(C)(O/N=C(\C(=O)N[C@@H]1C(=O)N2C(C(=O)[O-])=C(C[N+]3(CCNC(=O)c4ccc(O)c(O)c4Cl)CCCC3)CS[C@H]12)c1csc(N)n1)C(=O)O` [CEFIDEROCOL], the MIC (in series [8]; in the series with Enterobacteriaceae; with Bacteria) was below 2 µg/mL throughout.
For the molecule `C=CC1=C(C(=O)O)N2C(=O)[C@@H](NC(=O)/C(=N\OCC(=O)O)c3csc(N)n3)[C@H]2SC1` [CEFIXIME], the MIC with Escherichia coli is 0.015 µg/mL (≈ 0.0331 µM); in the series with Proteus mirabilis it was at most 0.008 µg/mL; in the series with Haemophilus influenzae, 0.004 µg/mL (≈ 0.00882 µM).
In the case of `CN(C)CCn1nnnc1SCC1=C(C(=O)O)N2C(=O)[C@@H](NC(=O)Cc3csc(N)n3)[C@H]2SC1` [CEFOTIAM], the MIC was 0.25 µg/mL (≈ 0.476 µM) in the series on Staphylococcus aureus, at least 16 µg/mL in the series on Bacteroides fragilis and above 128 µg/mL in the series with Clostridioides difficile.
Regarding `COCC1=C(C(=O)O)N2C(=O)[C@@H](NC(=O)/C(=N\OC)c3csc(N)n3)[C@H]2SC1` [CEFPODOXIME], the MIC in the series with Haemophilus influenzae was at most 0.03 µg/mL; in the series on Streptococcus pyogenes, at most 0.004 µg/mL; in the series on Neisseria gonorrhoeae it was 0.004 µg/mL (≈ 0.00936 µM).
As for `Nc1nc(/C(=C/CC(=O)O)C(=O)N[C@@H]2C(=O)N3C(C(=O)O)=CCS[C@H]23)cs1` [CEFTIBUTEN], the MIC in the series on Streptococcus pneumoniae stood at 0.5 µg/mL (≈ 1.22 µM); in the series on Haemophilus influenzae, 0.015 µg/mL (≈ 0.0365 µM); in the series on Moraxella catarrhalis it was 0.5 µg/mL (≈ 1.22 µM).
A word on the bioavailability: it is the share of a dose that reaches the circulation, judged against a reference dose that is usually intravenous. For the molecule `Cc1nc(Nc2ncc(C(=O)Nc3c(C)cccc3Cl)s2)cc(N2CCN(CCO)CC2)n1.O` [DASATINIB], the values for the 50% inhibitory concentration (IC50) in the series on WiDr and with K562 were below 1 nM and 52 nM, respectively. In series [9], this molecule came in with a bioavailability of 27%. Moreover, the half-life at 10 h in the series “in vivo [10]” is 3.3 h; in “in vivo [11]” it was 3.1 h.
What is called Emax is the maximal effect, on the per cent scale that the assay sets. For the molecule `Nc1nc(CC(=O)Nc2ccc(CCNC[C@H](O)c3ccccc3)cc2)cs1` [MIRABEGRON], the Emax in the series on Urinary bladder was 94%. Besides, the EC50 in [12] is at least 10000 nM; in series [13], 22.4 nM; in series [14], at least 10000 nM.
As for `CC(=O)Oc1ccccc1C(=O)Nc1ncc([N+](=O)[O-])s1` [NITAZOXANIDE], the IC50 in series [15] worked out at 2400 nM.
`CCCN[C@H]1CCc2nc(N)sc2C1` [PRAMIPEXOLE DIHYDROCHLORIDE] showed a Ki on D(3) dopamine receptor of 0.5 nM.
In the case of `CC(C)c1nc(CN(C)C(=O)N[C@H](C(=O)N[C@@H](Cc2ccccc2)C[C@H](O)[C@H](Cc2ccccc2)NC(=O)OCc2cncs2)C(C)C)cs1` [RITONAVIR], the half-inhibitory concentration (IC50) in [16] turned out to be 200 nM.
